In data set [1] the test system is CD8 T cells and NK cells in blood. The data set is described as follows: Immune cell activity and weight recovery in doxorubicin-treated mice. Format: in vivo, Balb/c mice. The following applies: DOX 10 mg/kg on day 1 and 5; oral administration for 14 days; flow cytometry. A general note: Flow cytometry measures light scatter and fluorescence of single cells or particles in a stream.

The conditions of data set [2]: mouse, in vivo.
In data set [3] the test system is SK-BR-3 (human breast cancer) transplanted tumor. Nature of the data set: Combined administration with doxorubicin in SK-BR-3 transplanted mice. Type of data set: in vivo, Balb/c mice. The following applies: after second intravenous administration of doxorubicin.

Data on two compounds can be found in US12465627B2, “Immunity-boosting agent, immuno-therapeutic anti-cancer agent, and anti-cancer therapy adverse effect mitigating agent containing anthocyanin-fucoidan complex as active ingredient” (JBKLAB CO., LTD., priority 2017, dated 2025).

Regarding `COc1cccc2c1C(=O)c1c(O)c3c(c(O)c1C2=O)C[C@@](O)(C(=O)CO)C[C@@H]3O[C@H]1C[C@H](N)[C@H](O)[C@H](C)O1` [DOX, doxorubicin], the “immune cells (CD8 T cell and NK cell) in blood” value in data set [1] is listed as “immune cells decreased”. In data set [2], this compound had a BASO of 3.2%, an EOS of 3%, an HCT of 52.6% and an HGB of 16.5 g/dL. Moreover, in data set [2], the LYM was found to be 53.7%, the MCHC is recorded as 15 g/dL, the MONO was found to be 4.3% and the NEUT is on record as 33.9%. Also, in data set [2], the PLT is reported as 1954 ×10^3 cells/μL, the RBC was 10.99 ×10^6 cells/μL and the WBC is recorded as 6.57 ×10^3 cells/μL. Moreover, the body weight change result in data set [3] is given as “rapid decrease in body weight”.

In data set [2], fucoidan showed a BASO of 1.5%, an EOS of 6.1%, an HCT of 39.8% and an HGB of 10.9 g/dL. In data set [2], this compound had an LYM of 14.3%, an MCHC of 12 g/dL, an MONO of 4.6% and an NEUT of 67.9%. In addition, in data set [2], the PLT is on record as 1242 ×10^3 cells/μL, the RBC is listed as 9.14 ×10^6 cells/μL and the WBC is given as 18.41 ×10^3 cells/μL.
